From the NIST ThermoML archive (doi:10.1016/j.fluid.2006.11.005)

What was measured:
[1] = 101.33 kPa, Liquid
[2] = xn = mol fraction of the nth substance listed; conditions: 101.33 kPa, Liquid

c1ccccc1 [benzene]
[1]
Conditions | mass density [kg/m3]
288.15 K | 884.246
293.15 K | 878.918
298.15 K | 873.582
303.15 K | 868.233
308.15 K | 862.871
313.15 K | 857.498

c1ccccc1 [benzene] + ClC(Cl)Cl
[2], x2 = 0
Conditions | mass density [kg/m3]
288.15 K | 884.246
293.15 K | 878.918
298.15 K | 873.582
303.15 K | 868.233
308.15 K | 862.871
313.15 K | 857.498

CCO [ethanol]
[1]
Conditions | mass density [kg/m3]
288.15 K | 793.721
293.15 K | 789.454
298.15 K | 785.164
303.15 K | 780.853
308.15 K | 776.51
313.15 K | 772.138

CCO [ethanol] + ClC(Cl)Cl
[2], x1 = 1
Conditions | mass density [kg/m3]
288.15 K | 793.721
293.15 K | 789.454
298.15 K | 785.164
303.15 K | 780.853
308.15 K | 776.51
313.15 K | 772.138

ClC(Cl)Cl [trichloromethane]
[1]
Conditions | mass density [kg/m3]
288.15 K | 1498.08
293.15 K | 1488.64
298.15 K | 1479.15
303.15 K | 1469.61
308.15 K | 1460.03
313.15 K | 1450.41

ClC(Cl)Cl [trichloromethane] + c1ccccc1
mass density [kg/m3], [2]
Conditions | 288.15 K | 293.15 K | 298.15 K | 303.15 K | 308.15 K | 313.15 K
x1 = 0.1001 | 939.224 | 933.584 | 927.935 | 922.271 | 916.586 | 910.883
x1 = 0.2 | 995.529 | 989.568 | 983.589 | 977.59 | 971.567 | 965.527
x1 = 0.3072 | 1057.3 | 1050.96 | 1044.61 | 1038.23 | 1031.82 | 1025.38
x1 = 0.3995 | 1111.96 | 1105.29 | 1098.58 | 1091.85 | 1085.08 | 1078.27
x1 = 0.4997 | 1172.45 | 1165.38 | 1158.28 | 1151.15 | 1143.98 | 1136.78
x1 = 0.6 | 1234.48 | 1226.99 | 1219.47 | 1211.92 | 1204.33 | 1196.74
x1 = 0.6652 | 1275.68 | 1267.9 | 1260.09 | 1252.24 | 1244.34 | 1236.41
x1 = 0.7991 | 1362.32 | 1353.91 | 1345.46 | 1336.97 | 1328.42 | 1319.82
x1 = 0.8009 | 1363.45 | 1355.03 | 1346.58 | 1338.09 | 1329.56 | 1321.04
x1 = 0.9 | 1429.59 | 1420.68 | 1411.71 | 1402.7 | 1393.63 | 1384.52
x1 = 1 | 1498.08 | 1488.64 | 1479.15 | 1469.61 | 1460.03 | 1450.41
